# Like-named read-outs stand apart in the source and are kept apart here.
# Legend:
# [1] = biological target: CYP1A2 (Homo sapiens (Human), UniProt P05177); assay: In vitro inhibitory activity against common CYP450 enzymes: CYP1A2; type: in vitro ADME; conditions: microsomes, substrate Phenacetin; read-out: IC50 CYP1A2
# Protocol: (§1) A working solution of the test compound was prepared in a solvent of dimethyl sulfoxide (DMSO) (starting at a final concentration of 50 μM, 3-fold dilution of 7 concentration points). The corresponding microsomes (CORNING, Cat No.452117) and the corresponding substrate solution were prepared (components were shown in Table 2). The working solution of the test compound and the corresponding microsomes were mixed with the corresponding substrate solution and the HLM working solution. The mixture was preheated in a 37.0° C. water bath for 10 min. NADPH cofactor (BONTAC, Cat No.BT04) was added. The resultant mixture was incubated for 10 min in a 37.0° C. water bath. The reaction was terminated by adding cold stop solution. [table] [table] The sample was centrifuged at 4000 rpm for 20 min to precipitate protein and the supernatant was transferred to HPLC water and shaken for 10 min.
# [2] = test system: cortisol levels; assay: Pharmacodynamic test in cynomolgus monkeys with ACTH stimulation: cortisol in plasma; type: in vivo, cynomolgus monkeys (Macaca fascicularis)
# Description: (§2) Adult cynomolgus monkeys (Macaca fascicularis) with suitable body weight and age were selected. 1 male and 1 female cynomolgus monkeys were used for experiment. The adaptation period was 1 week. On the day of the experiment, monkeys were individually housed in stainless steel mesh cages for testing.
# (§3) Oral treatment and ACTH working solution (working solution diluted to the desired concentration in PBS sterile solution by ultrapure water filtration through a 0.22 μm filter using Tetracosactrin (HY-P0060, MCE)) were administered as follows: • T=0, 2 monkeys in each group were orally administered 0.5 mg/kg (compound was suspended in 5% aqueous sodium hydroxymethylcellulose solution as vehicle) in a fixed volume of 2 mL/kg; • T=+1 hour (i.e., 1 hour after administration), 14.5 μg/kg of the aforementioned ACTH working solution was injected intramuscularly.
# (§4) Sampling test: Blood samples (collected in EDTA anticoagulant tubes) were collected before oral administration (Pre-dose) and 0.5 h, 1 h, 2 h, 4 h, 6 h and 12 h after administration for cortisol concentration measurement in plasma. The blood was centrifuged at 10000 rpm for 15 minutes at 4° C., followed by separation of the plasma and uniform storage at −80° C. for further analysis using an Roche biochemical analyzer to detect aldosterone and cortisol in plasma, and a portion of the plasma (0.5 h, 1 h, 2 h, 4 h, 6 h, and 12 h after administration, and an additional blood collection after 24 h) was taken simultaneously to determine the pharmacokinetic parameters by LC/MS.
# (§5) The above experiment was repeated except that: T=0, two monkeys in each group were orally administered at a dose of 0.05 mg/kg (compound was suspended in 5% aqueous sodium hydroxymethylcellulose as vehicle) in a fixed volume of 2 mL/kg.
# [3] = biological target: human CYP11B2 (Homo sapiens (Human), UniProt P19099); assay: Inhibitory activity against hCYP11B2 in G-402 CYP11B2 high expression stable transformants (aldosterone HTRF); type: cell-based
# human CYP11B2, sequence (P19099 25-503): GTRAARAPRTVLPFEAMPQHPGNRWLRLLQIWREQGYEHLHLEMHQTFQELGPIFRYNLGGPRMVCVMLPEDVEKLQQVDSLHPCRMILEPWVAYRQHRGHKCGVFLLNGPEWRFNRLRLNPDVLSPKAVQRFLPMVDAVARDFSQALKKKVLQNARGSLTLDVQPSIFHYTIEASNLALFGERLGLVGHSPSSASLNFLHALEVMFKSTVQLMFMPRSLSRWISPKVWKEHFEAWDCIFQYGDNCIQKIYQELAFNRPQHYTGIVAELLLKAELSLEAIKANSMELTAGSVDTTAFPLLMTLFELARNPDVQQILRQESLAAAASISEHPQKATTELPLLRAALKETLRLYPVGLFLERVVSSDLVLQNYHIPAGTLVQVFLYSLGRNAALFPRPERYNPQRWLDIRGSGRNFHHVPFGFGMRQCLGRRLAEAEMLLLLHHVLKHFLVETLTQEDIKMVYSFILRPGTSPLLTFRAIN
# Protocol: (§6) 1. Experimental System: G-402 CYP11B2 or CYP11B1 High Expression Stable Transformants
# (§7) The above-mentioned high-expression stable transformants were constructed based on human […] cell line G-402. The artificial lentiviruses were introduced into human CYP11B2 (NM_000498.3) and CYP11B1 (NM_000497.4), respectively.
# (§8) Maintenance medium: McCoy's 5A (modified, #16600082, GIBCO)+10% FBS (GIBCO)+1 μg/mL puromycin (A1113803, GIBCO).
# (§9) Resuscitation and seeding medium: McCoy's 5A (modified, #16600082, GIBCO)+10% FBS (GIBCO).
# (§10) Reaction medium: DMEM/F12 (#11320033, GIBCO)+2.5% activated charcoal filtered FBS (S11695, R & D).
# (§11) Seeding: Cells were cultured to a suitable state after resuscitation with maintenance medium, and 96-well flat plates were seeded with seeding medium according to 1×10^4/100 μL/well (unified cell volume).
# (§12) Changing solution: The supernatant was aspirated and discarded after seeding overnight (>12 hours) and adherence. 100-150 μL/well serum-free medium was added, and after being aspirated. After aspiration, 50 μL/well reaction medium was added for later use.
# (§13) Formulation: Compound was diluted with reaction medium containing 0.4 μM substrate (final experimental concentration is 0.2 μM):
# CYP11B2 substrate: 11-deoxycorticosterone (11-deoxycorticosterone, S4243, selleckchem). The final reaction concentration was 0.2 μM
# (§14) Loading: The above compound dilutions were added to the cell plates at 50 μL/well. The background and control wells were set.
# (§15) Treating and sampling: The cell plates were incubated in a cell incubator for 16 hours after loading, and then each cell plate was centrifuged at 450 g for 2 min. 75 μL supernatant was transferred to a collection plate and frozen at −80° C. for future use (or direct detection).
# (§16) Detection: Homogeneous time-resolved fluorescence kit (Cisbio HTRF kit, Cat.64ALDPEG, Cat.62CRTPEG) was used to determine the concentration of aldosterone or cortisol in the supernatant.
# (§17) Analysis: The absolute IC50 (Abs IC50) for each compound was calculated using a four parameter fit.
# [4] = Pharmacokinetic test in cynomolgus monkeys (LC/MS); type: in vivo, cynomolgus monkeys (Macaca fascicularis); conditions: both sexes, cynomolgus monkey, plasma; for AUC(0-t): read-out: AUC0-24 h
# Description: as §2, §3, §4, §5
# [5] = biological target: aldosterone synthase (Homo sapiens (Human), UniProt P19099); conditions: phase I clinical study, cited from earlier work
# aldosterone synthase, sequence (P19099 25-503): as above
# [6] = biological target: human CYP11B1 (Homo sapiens (Human), UniProt P15538); assay: Inhibitory activity against hCYP11B1 in G-402 CYP11B1 high expression stable transformants (cortisol HTRF); type: cell-based; conditions: G-402 CYP11B1 cells, 0.2 μM 11-deoxycortisol, 16 hours; read-out: hCYP11B1 Abs IC50
# human CYP11B1, sequence (P15538 25-503): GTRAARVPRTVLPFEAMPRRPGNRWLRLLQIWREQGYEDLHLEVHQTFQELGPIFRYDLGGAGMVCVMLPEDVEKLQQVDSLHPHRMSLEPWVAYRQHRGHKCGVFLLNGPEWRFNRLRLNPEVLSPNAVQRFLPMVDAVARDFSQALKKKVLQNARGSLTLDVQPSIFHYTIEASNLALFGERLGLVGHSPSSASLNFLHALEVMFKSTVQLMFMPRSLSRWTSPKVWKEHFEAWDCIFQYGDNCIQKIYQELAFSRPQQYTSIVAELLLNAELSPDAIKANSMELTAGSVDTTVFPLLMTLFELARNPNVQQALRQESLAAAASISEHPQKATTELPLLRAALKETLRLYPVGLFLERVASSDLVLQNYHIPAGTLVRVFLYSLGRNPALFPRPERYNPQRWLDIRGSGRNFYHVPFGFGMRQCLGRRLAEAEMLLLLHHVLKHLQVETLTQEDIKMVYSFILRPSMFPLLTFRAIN
# Protocol: as §6, §7, §8, §9, §10, §11, §12, §13
# CYP11B1 substrate: 11-deoxycortisol (11-deoxycortisol, S4775, selleckchem). The final reaction concentration was 0.2 μM.
# as §14, §15, §16, §17
# [7] = biological target: CYP3A (Homo sapiens, UniProt P08684); assay: In vitro inhibitory activity against common CYP450 enzymes: CYP3A (midazolam); type: in vitro ADME; conditions: human, human liver microsomes, probe Midazolam, substrate Midazolam
# CYP3A, sequence (P08684 2-503 limits assumed): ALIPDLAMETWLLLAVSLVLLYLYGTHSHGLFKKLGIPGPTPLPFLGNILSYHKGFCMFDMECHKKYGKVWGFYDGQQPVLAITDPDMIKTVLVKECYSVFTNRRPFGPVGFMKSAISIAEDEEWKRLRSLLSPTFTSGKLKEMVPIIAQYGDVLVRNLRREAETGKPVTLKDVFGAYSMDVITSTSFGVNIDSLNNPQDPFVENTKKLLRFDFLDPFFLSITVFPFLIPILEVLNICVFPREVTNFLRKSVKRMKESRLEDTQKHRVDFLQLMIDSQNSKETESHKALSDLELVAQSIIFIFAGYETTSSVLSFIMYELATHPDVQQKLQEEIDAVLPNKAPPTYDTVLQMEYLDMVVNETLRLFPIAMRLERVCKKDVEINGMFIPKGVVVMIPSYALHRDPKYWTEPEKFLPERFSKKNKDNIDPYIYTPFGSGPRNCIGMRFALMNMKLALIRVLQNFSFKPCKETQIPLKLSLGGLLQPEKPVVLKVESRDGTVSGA
# Protocol: as §1
# CYP1A2, sequence (P05177 whole entry): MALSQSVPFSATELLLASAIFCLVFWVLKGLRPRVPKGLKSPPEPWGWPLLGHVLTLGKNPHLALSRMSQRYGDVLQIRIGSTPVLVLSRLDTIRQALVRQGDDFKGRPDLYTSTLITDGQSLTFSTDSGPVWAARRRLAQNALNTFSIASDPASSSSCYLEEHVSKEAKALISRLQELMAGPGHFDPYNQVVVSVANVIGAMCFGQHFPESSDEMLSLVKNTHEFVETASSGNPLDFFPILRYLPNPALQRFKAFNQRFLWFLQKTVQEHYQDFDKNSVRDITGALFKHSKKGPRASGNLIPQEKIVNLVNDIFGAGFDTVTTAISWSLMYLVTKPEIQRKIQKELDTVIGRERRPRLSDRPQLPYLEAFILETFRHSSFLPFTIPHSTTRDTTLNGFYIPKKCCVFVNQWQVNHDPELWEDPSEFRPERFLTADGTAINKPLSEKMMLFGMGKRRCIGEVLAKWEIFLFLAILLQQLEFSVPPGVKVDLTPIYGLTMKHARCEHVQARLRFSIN
compound,measurement,setting,value
"CCC(=O)N[C@@H]1CCCc2c(-c3ccc4c(c3)CCC(=O)N4C)cncc21 [Baxdrostat, reference compound]",IC50,[1],> 50 µM
same,Cortisol Concentration in Plasma,"[2]; 0.05 mg/kg oral, 0.5 h",1136.1 pg/mL
same,Cortisol Concentration in Plasma,"[2]; 0.05 mg/kg oral, 1 h (ACTH at +1 hour)",1293.5 pg/mL
same,Cortisol Concentration in Plasma,"[2]; 0.05 mg/kg oral, 2 h",1527.0 pg/mL
same,Cortisol Concentration in Plasma,"[2]; 0.05 mg/kg oral, 4 h",949.2 pg/mL
same,Cortisol Concentration in Plasma,"[2]; 0.05 mg/kg oral, 6 h",499.4 pg/mL
same,Cortisol Concentration in Plasma,"[2]; 0.05 mg/kg oral, 12 h",392.6 pg/mL
same,Cortisol Concentration in Plasma,"[2]; 0.05 mg/kg oral, Pre-dose",784.2 pg/mL
same,Cortisol Concentration in Plasma,"[2]; 0.5 mg/kg oral, 0.5 h",1004.1 pg/mL
same,Cortisol Concentration in Plasma,"[2]; 0.5 mg/kg oral, 1 h (ACTH at +1 hour)",964.8 pg/mL
same,Cortisol Concentration in Plasma,"[2]; 0.5 mg/kg oral, 2 h",1288.5 pg/mL
same,Cortisol Concentration in Plasma,"[2]; 0.5 mg/kg oral, 4 h",556.6 pg/mL
same,Cortisol Concentration in Plasma,"[2]; 0.5 mg/kg oral, 6 h",337.0 pg/mL
same,Cortisol Concentration in Plasma,"[2]; 0.5 mg/kg oral, 12 h",344.6 pg/mL
same,Cortisol Concentration in Plasma,"[2]; 0.5 mg/kg oral, Pre-dose",596.4 pg/mL
same,IC50,"[3]; G-402 CYP11B2 cells, 0.2 μM 11-deoxycorticosterone, 16 hours, read-out: hCYP11B2 (AS) Abs IC50",0.0281 µM
same,hCYP11B ½ Selectivity Fold,[3]; hCYP11B1 IC50 relative to hCYP11B2 IC50,119.99 Fold
same,Cmax,"[4]; 0.05 mg/kg, 0.05mpk oral",6.13 ng/mL
same,Tmax,"[4]; 0.05 mg/kg, 0.05mpk oral",2 h
same,half-life,"[4]; 0.05 mg/kg, 0.05mpk oral",10.9 h
same,AUC(0-t),"[4]; 0.05 mg/kg, 0.05mpk oral",90.3 ng·h/mL
same,Cmax,"[4]; 0.5 mg/kg, 0.5mpk oral",56.1 ng/mL
same,Tmax,"[4]; 0.5 mg/kg, 0.5mpk oral",2 h
same,half-life,"[4]; 0.5 mg/kg, 0.5mpk oral",9.25 h
same,AUC(0-t),"[4]; 0.5 mg/kg, 0.5mpk oral",606 ng·h/mL
same,reduction of aldosterone level in plasma,[5]; dose-dependent,more than 70%
same,inhibition of aldosterone synthase relative to inhibition of cortisol synthesis,[5],100 times
same,IC50,[6],3.37 µM
same,IC50 at 10 min,[7],> 50 µM
